The values below come from ChEMBL document CHEMBL5236572, “Bioactive Aurones, Indanones, and Other Hemiindigoid Scaffolds: Medicinal Chemistry and Photopharmacology Perspectives” (J Med Chem, 2022).

Structures are written as SMILES. ≈ marks a conversion by molar mass, not a printed value.

A word on the IC50: it is the point on the concentration scale where inhibition reaches its midpoint. What is called Kd is the concentration at which binding is half-saturated. As usually defined, the MIC90 is the lowest concentration that inhibits either 90% of growth or 90% of the strains tested, depending on the study. The term MIC99 denotes the lowest concentration that inhibits either 99% of growth or 99% of the strains tested, depending on the study. What is called CC50 is the concentration that lowers cell viability or growth by half. The term MIC denotes the lowest concentration found to suppress growth. What is called Ki is the dissociation constant of the complex between target and ligand, obtained from inhibition or displacement. A word on the inhibition: it is the drop in the measured response relative to a control, in per cent. Read a high inhibition as strong suppression. The term EC50 denotes the midpoint of the concentration-response curve.

Data set [1] has as its target T1, Tyrosinase (Agaricus bisporus, UniProt O42713).
T1 sequence (O42713 whole entry): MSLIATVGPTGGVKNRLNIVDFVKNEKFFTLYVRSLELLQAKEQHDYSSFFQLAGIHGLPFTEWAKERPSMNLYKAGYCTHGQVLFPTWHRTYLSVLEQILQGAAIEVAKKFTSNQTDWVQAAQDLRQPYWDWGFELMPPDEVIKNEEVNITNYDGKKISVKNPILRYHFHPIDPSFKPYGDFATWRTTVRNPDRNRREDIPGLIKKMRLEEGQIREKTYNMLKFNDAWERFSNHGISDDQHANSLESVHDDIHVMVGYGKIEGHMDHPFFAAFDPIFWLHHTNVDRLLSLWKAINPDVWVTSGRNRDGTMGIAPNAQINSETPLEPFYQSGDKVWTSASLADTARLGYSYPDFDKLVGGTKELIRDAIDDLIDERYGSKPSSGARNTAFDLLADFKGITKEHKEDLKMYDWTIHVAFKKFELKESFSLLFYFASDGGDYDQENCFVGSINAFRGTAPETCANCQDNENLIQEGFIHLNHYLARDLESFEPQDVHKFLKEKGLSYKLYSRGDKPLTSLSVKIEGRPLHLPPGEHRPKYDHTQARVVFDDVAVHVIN
Put plainly: Inhibition of mushroom tyrosinase using L-tyrosine as substrate incubated for 30 mins by spectrophotometric analysis.

Data set [2] is described as follows: Binding affinity to Helicobacter pylori HTRA by SPR analysis. Background: Surface plasmon resonance follows binding to a sensor surface in real time, without labels.
The target of data set [3] is T1, Tyrosinase. Nature of the data set: Inhibition of mushroom tyrosinase using L-DOPA as substrate preincubated for 10 mins followed by substrate addition and measured after 1 mins by spectrophotometric analysis.
For data set [4], the system named is Mycobacterium tuberculosis. Put plainly: Antimicrobial activity against Mycobacterium tuberculosis assessed as reduction in bacterial growth by Alamar Blue fluorescence assay. The format is functional, organism-based. (Alamar Blue is a resazurin reagent that responds to reducing activity.)
The test system of data set [5] is Mycobacterium tuberculosis. Nature of the data set: Antimicrobial activity against Mycobacterium tuberculosis H37Rv assessed as reduction in bacterial growth incubated for 7 days by broth micro dilution method. The note with it: 168 h, time 7 day. The class given is functional.
The nature of data set [6]: Cytotoxicity against human HEK293T cells. The format is toxicity, cell-based, HEK-293T.
Data set [7] addresses T2, Amine oxidase [flavin-containing] A (Homo sapiens, UniProt P21397).
T2 sequence (P21397 whole entry): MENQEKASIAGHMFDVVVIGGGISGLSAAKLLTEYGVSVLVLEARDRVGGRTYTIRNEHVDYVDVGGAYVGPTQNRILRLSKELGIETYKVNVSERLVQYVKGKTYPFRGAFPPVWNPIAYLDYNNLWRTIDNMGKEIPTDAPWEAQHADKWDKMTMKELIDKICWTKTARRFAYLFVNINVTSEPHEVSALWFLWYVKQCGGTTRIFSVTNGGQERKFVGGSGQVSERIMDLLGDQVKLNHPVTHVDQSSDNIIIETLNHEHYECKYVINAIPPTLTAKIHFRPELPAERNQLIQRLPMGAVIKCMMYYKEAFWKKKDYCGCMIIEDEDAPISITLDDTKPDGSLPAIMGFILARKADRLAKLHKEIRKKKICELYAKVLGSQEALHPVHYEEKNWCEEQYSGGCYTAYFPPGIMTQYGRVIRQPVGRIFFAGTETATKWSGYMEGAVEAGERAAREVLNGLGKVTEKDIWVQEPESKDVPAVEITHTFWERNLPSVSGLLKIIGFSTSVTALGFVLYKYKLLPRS
Nature of the data set: Inhibition of recombinant human MAO-A.

Data set [8] addresses T3, Amine oxidase [flavin-containing] B (Homo sapiens, UniProt P27338).
T3 sequence (P27338 whole entry): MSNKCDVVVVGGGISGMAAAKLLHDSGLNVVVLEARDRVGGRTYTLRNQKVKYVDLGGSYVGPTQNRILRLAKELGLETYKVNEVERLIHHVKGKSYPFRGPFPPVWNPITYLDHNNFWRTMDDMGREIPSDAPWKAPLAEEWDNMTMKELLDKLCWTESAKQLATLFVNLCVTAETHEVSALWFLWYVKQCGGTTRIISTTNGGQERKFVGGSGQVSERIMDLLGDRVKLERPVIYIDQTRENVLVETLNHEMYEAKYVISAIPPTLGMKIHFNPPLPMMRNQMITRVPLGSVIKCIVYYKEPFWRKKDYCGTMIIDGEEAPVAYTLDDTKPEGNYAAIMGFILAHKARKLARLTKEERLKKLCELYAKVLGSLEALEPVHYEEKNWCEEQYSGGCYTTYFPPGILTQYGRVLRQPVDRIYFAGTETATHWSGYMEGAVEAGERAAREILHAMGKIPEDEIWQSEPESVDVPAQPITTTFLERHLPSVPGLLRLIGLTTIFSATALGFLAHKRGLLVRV
Put plainly: Inhibition of recombinant human MAO-B.

The species entered for data set [9] is Homo sapiens. Put plainly: Selectivity index, ratio of IC50 for inhibition of recombinant human MAO-A to IC50 for inhibition of recombinant human MAO-B.
For data set [10], the target named is T4, Serine/threonine-protein kinase AKT (Homo sapiens, UniProt P31751+Q9Y243+P31749). Put plainly: Inhibition of AKT (unknown origin). The class given is protein assay.
Data set [11] has as its system Rhizopus arrhizus. Nature of the data set: Antifungal activity against Rhizopus oryzae assessed as reduction in fungal growth incubated for 24 hrs by disk diffusion assay. The class given is functional.
Data set [12] has as its system Mucor mucedo. Put plainly: Antifungal activity against Mucor mucedo assessed as reduction in fungal growth incubated for 24 hrs by disk diffusion assay. The format is functional. (In general: In agar diffusion tests the substance spreads into inoculated agar from a disc or well.)
The test system of data set [13] is Aspergillus niger. Put plainly: Antifungal activity against Aspergillus niger assessed as reduction in fungal growth incubated for 24 hrs by disk diffusion assay. The class given is functional.
For data set [14], the system named is Aspergillus flavus. Nature of the data set: Antifungal activity against Aspergillus flavus assessed as reduction in fungal growth incubated for 24 hrs by disk diffusion assay. The format is functional.
For data set [15], the target named is T2, Amine oxidase [flavin-containing] A. Nature of the data set: Inhibition of recombinant human MAO-A using p-tyramine as substrate by Amplex-Red MAO assay.
For data set [16], the target named is T3, Amine oxidase [flavin-containing] B. Nature of the data set: Inhibition of recombinant human MAO-B using p-tyramine as substrate by Amplex-Red MAO assay.
Data set [17] concerns the target Histone deacetylase 4 (Homo sapiens, UniProt P56524). Put plainly: Inhibition of human HDAC4 in HeLa cells extract incubated for 5 mins followed by substrate addition and measured after 15 mins using Fluor-de-Lys as substrate by spectrofluorometric analysis. The format is cell-free.
Data set [18] has as its target Histone deacetylase 2 (Homo sapiens, UniProt Q92769). Put plainly: Inhibition of human HDAC2 in HeLa cells extract incubated for 5 mins followed by substrate addition and measured after 15 mins using Fluor-de-Lys as substrate by spectrofluorometric analysis. The class given is cell-free.
Data set [19] addresses Histone deacetylase 7 (Homo sapiens, UniProt Q8WUI4). Put plainly: Inhibition of human HDAC7 in HeLa cells extract incubated for 5 mins followed by substrate addition and measured after 15 mins using Fluor-de-Lys as substrate by spectrofluorometric analysis. The format is cell-free.
Data set [20] concerns the target Histone deacetylase 8 (Homo sapiens, UniProt Q9BY41). Nature of the data set: Inhibition of human HDAC8 in HeLa cells extract incubated for 5 mins followed by substrate addition and measured after 15 mins using Fluor-de-Lys as substrate by spectrofluorometric analysis. The class given is cell-free.
The nature of data set [21]: Inhibition of synthetic AcPHF6 peptide aggregation measured upto 120 mins at 1 min interval by ThT-based fluorometric assay.
In data set [22] the test system is HT-22. Nature of the data set: Neuroprotective activity against glutamate induced-neurotoxicity in mouse HT-22 cells assessed as cell viability preincubated for 4 hrs followed by glutamate stimulation and measured after 12 hrs by MTT assay. The class given is functional, cell-based.
Data set [23] concerns HT-22. Put plainly: Neuroprotective activity against glutamate induced-neurotoxicity in mouse HT-22 cells assessed as cell viability at 40 uM preincubated for 4 hrs followed by glutamate stimulation and measured after 12 hrs by MTT assay. The class given is functional. To be noted: time 16 hrs, read-out: Activity.
Data set [24] concerns the target Acetylcholinesterase (Homo sapiens, UniProt P22303). Put plainly: Inhibition of human AchE by Ellman's method.
Data set [25] concerns the target T4, Serine/threonine-protein kinase AKT. Put plainly: Inhibition of AKT (unknown origin) by FRET based Z'-LYTE assay. The class given is protein assay.

Sequence of Histone deacetylase 2 (Q92769 whole entry): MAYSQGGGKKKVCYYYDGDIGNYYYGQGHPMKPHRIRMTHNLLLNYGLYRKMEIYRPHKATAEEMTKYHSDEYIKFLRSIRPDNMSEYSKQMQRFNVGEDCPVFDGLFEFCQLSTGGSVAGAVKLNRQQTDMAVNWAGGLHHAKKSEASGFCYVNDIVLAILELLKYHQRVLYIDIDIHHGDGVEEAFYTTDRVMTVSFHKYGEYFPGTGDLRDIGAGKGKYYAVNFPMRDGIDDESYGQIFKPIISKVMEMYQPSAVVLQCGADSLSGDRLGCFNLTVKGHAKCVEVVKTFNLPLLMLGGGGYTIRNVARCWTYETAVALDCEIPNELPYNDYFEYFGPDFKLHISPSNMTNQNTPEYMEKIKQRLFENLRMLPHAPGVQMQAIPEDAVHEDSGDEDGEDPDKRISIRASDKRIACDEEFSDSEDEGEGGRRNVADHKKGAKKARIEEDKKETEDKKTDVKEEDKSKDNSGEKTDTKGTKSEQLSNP
Sequence of Histone deacetylase 8 (Q9BY41 whole entry): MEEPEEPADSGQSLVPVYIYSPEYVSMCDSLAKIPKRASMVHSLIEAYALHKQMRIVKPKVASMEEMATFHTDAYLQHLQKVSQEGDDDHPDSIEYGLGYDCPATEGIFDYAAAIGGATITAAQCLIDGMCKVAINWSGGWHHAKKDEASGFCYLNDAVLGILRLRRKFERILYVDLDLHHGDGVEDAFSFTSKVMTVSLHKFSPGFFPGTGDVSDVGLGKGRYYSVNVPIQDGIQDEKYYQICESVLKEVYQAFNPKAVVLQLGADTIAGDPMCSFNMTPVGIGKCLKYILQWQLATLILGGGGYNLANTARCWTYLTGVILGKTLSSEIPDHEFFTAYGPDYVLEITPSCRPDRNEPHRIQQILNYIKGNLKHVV
Sequence of Acetylcholinesterase (P22303 whole entry): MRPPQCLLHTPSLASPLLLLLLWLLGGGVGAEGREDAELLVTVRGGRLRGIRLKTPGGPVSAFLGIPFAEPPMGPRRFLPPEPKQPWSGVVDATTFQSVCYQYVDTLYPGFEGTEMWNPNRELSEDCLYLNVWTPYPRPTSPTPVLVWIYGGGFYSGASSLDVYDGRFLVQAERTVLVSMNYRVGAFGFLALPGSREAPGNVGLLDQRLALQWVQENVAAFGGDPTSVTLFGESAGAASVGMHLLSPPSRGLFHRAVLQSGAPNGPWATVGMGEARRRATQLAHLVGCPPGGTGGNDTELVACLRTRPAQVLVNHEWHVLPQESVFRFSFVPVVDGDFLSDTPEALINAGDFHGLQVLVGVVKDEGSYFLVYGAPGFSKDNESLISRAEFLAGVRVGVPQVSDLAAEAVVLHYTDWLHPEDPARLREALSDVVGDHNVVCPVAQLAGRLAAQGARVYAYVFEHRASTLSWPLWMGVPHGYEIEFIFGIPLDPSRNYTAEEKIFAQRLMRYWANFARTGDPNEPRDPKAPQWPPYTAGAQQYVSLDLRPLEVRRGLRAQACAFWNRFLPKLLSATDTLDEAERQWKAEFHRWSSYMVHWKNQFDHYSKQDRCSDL
Sequence of Histone deacetylase 4 (P56524 whole entry): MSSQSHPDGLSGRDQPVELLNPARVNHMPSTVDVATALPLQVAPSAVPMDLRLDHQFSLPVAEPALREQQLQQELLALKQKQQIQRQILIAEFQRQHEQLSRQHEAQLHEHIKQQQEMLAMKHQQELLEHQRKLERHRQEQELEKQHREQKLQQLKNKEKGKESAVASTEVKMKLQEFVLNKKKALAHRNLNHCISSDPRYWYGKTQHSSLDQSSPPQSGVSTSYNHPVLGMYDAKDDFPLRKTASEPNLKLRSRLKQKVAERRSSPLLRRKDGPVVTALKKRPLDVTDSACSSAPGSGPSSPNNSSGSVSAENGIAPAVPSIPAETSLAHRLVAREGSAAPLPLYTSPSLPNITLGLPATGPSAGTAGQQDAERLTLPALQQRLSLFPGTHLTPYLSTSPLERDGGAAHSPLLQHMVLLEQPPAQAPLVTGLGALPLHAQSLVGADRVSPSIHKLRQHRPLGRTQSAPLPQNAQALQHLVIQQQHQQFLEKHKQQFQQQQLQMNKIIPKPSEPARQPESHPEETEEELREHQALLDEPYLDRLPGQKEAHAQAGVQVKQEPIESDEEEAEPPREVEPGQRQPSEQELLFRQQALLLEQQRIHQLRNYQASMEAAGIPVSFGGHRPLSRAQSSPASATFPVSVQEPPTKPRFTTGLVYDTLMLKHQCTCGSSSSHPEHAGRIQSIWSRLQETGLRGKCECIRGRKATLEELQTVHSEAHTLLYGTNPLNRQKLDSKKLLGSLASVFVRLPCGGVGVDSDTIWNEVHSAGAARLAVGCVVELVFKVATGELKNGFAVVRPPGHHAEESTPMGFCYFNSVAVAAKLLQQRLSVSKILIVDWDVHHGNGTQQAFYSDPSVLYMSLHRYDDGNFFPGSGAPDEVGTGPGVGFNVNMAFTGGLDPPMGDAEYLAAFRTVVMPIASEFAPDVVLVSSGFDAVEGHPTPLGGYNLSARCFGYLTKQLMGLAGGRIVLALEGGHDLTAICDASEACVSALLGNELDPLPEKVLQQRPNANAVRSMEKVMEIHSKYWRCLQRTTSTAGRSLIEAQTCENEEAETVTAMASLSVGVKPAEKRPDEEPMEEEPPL
Sequence of Histone deacetylase 7 (Q8WUI4 whole entry): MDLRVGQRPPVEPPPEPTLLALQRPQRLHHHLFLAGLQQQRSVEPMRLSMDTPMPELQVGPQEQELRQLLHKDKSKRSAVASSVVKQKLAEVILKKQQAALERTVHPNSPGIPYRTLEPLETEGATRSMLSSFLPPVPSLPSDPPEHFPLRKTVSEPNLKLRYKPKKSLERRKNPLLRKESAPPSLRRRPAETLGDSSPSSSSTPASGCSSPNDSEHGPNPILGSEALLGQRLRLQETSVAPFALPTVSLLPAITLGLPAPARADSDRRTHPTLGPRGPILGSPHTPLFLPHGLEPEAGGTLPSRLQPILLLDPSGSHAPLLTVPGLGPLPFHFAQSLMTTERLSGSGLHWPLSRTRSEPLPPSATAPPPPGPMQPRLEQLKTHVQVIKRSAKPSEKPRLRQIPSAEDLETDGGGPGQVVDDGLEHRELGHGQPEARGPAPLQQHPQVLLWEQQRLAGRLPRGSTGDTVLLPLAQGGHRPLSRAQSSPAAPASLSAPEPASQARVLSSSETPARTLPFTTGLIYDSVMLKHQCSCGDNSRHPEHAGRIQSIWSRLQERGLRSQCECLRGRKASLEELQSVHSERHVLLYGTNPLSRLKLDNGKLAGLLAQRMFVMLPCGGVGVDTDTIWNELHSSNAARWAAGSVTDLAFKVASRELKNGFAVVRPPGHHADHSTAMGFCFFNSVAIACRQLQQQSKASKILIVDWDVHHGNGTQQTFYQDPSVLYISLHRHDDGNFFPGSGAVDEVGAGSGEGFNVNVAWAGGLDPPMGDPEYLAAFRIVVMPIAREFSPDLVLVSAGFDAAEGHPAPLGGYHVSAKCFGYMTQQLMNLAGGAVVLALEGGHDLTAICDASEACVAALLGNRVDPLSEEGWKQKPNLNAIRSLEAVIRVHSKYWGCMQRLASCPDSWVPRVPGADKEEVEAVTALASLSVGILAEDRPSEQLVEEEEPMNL

Regarding `O=C1/C(=C/c2ccc(O)cc2O)Cc2ccc3ccccc3c21`, the IC50 in [1] came to 150 nM.

On to `O=C(O)c1cc(-c2ccc(/C=C3\Sc4ccccc4C3=O)o2)ccc1Cl`, for which binding in data set [2] was characterised by a dissociation constant (Kd) of 12000 nM.

For `CN(C)c1ccc(/C=C2\Cc3ccccc3C2=O)c([N+](=O)[O-])c1`, in data set [3], the IC50 was 8120 nM.

For the molecule `CCOc1ccc2c(c1)O/C(=C\c1cccc(OCC(=O)OC)c1)C2=O`, the IC50 in [4] was found to be 4800 nM.

As for `CC(=O)N1/C(=C\c2ccc(-c3cnc4ccccc4c3)cc2)C(=O)c2ccccc21`, in data set [5], the MIC90 was 0.65 µM (≈ 0.254 µg/mL) and the MIC99 was 0.74 µM (≈ 0.289 µg/mL). Besides, the CC50 in data set [6] came out at 19 nM.

With `COc1cc2c(cc1OC)C(=O)/C(=C/c1ccc(N(C)C)cc1)C2`, the IC50 in [7] turned out to be 20 nM; in data set [8] it was 58000 nM. Further, the Ratio IC50 in data set [9] is greater than 2500.

`Cc1ccc(C)c2c1C/C(=C\c1ccccc1)C2=O` had an IC50 in [10] of 207 nM.

Turning to `O=C1/C(=C/c2ccncc2)Cc2ccc3c(c21)CCO3`, the minimum inhibitory concentration (MIC) in data set [11], in data set [12], in [13] and in [14] was 60 µM (≈ 15.8 µg/mL) in each case.

Turning to `O=C1/C(=C/c2c3ccccc3cc3ccccc23)Oc2ccccc21`, the results for the Ki in data set [15] and in [16] were 110 nM and 200 nM, respectively.

Take `O=C1/C(=C/c2ccc(O)c(O)c2)Oc2cc(O)cc(O)c21` [AUREUSIDIN]: the Ki in data set [17] came out at 800 nM; in [18], 1660 nM; in data set [19], 1660 nM; in data set [20] it was 1660 nM. Further, the inhibition in data set [21] came out at 62%. The half-maximal effective concentration (EC50) in data set [22] was 11900 nM. Further, in data set [23], the viability at 40 µM was 97%.

For the molecule `COc1cc2c(cc1OC)C(=O)/C(=C/c1ccc(OCCN3CCCCC3)cc1)C2`, in data set [24], the half-inhibitory concentration (IC50) was determined as 300 nM.

Molecule `Cc1ccc2c(c1C)C(=O)/C(=C/c1ccccc1)C2` returned an IC50 in data set [25] of 66 nM.
